Data: PMC11869560, “Anticancer and cancer preventive activities of shogaol and curcumin from Zingiberaceae family plants in KG-1a leukemic stem cells” (BMC Complementary Medicine and Therapies, 2025)
Converted amounts (≈) assume the structure as drawn. Read-outs that look alike come from different tables or passages of the source.

Key:
[1] = system: KG-1a cells; assay: Trypan blue exclusion test, cell numbers of KG-1a cells; assay type: cell-based, human; conditions: IC20 concentrations, 48 h
Protocol: (§1) This test was used to confirm the cytotoxicity of the test samples. The cancer cells after exposure to crude ethanolic extracts and active compounds for 48 h were harvested and washed with ice-cold PBS, pH 7.4 for 3 times. Then, the cells were resuspended with PBS, pH 7.4. The cell suspensions were diluted with PBS, pH 7.4 at the appropriate dilution before being mixed with 0.2% trypan blue solution at 1:2 dilution for cell count on a hemocytometer. From this test, the viable cells and the dead cells could also be obviously detected.
as §1, with “crude ethanolic extracts and active compounds. KG-1a” for “the test samples. The cancer”

[2] = system: KG-1a cells; assay: Cell cycle and apoptosis (sub-G1) assay by flow cytometry in KG-1a cells; assay type: cell-based, human; conditions: 48 h; for change of cell cycle phase population compared to VC: IC20 concentrations; for G2/M phase population: IC50 concentrations
Protocol: After treating KG-1a cells with active compounds at various concentrations for 48 h, the cells were pulsed with 10 µM BrdU (Sigma-Aldrich, MA, USA) for 20 min at 37 °C in an incubator with 5% CO2. Subsequently, the cells were harvested, washed with ice-cold PBS, pH 7.4 three times, and then fixed with 70% ethanol in PBS, pH 7.4 at −30 °C. Following fixation, the cells were washed and resuspended in 2 N HCl/0.5% Triton X-100 for 30 min at room temperature (RT). Then, 0.1 M sodium tetraborate decahydrate was added for 2 min at RT to neutralize the acid. Subsequently, the cells were stained with FITC-anti-BrdU antibody for 30 min at RT. After washing, the cells were resuspended in propidium iodide (PI) (Dojindo, Kumamoto, Japan) in PBS, pH 7.4 at a ratio of 1:1,000. The cell cycle phases were detected using a flow cytometer (CytoFLEX S, Beckman Coulter, CA, USA) and analyzed with the CytExpert program (Beckman Coulter, CA, USA).
The flow cytometry data were analyzed to assess both apoptosis and cell cycle distribution. Apoptosis was evaluated by determining the percentage of cells in the sub-G1 phase using the Nicoletti assay. For cell cycle analysis, populations in the G1, S, and G2/M phases were calculated after excluding the sub-G1 population to avoid interference from apoptotic cells, allowing for a clearer assessment of cell cycle arrest in different phases. Data were presented in separate graphs for the sub-G1 population and cell cycle phase distributions.

[3] = system: RAW264.7 cells; assay: Cytotoxicity (IC20, cell viability) in RAW264.7 cells; assay type: cell-based; conditions: Mus musculus, RAW264.7; incubation for 48 h; read-out: IC20 RAW264.7 (inhibitory concentration at 20% growth)
Protocol: MTT (3-(4,5-dimethylthiazol-2-yl)-2,5-diphenyltetrazolium bromide) assay was used to investigate the cytotoxicity of the test samples. […] After that, 5 mg/mL of MTT dye solution (Sigma-Aldrich, MA, USA) was added and incubated for 4 h. The produced formazan crystals were dissolved in 200 μL of DMSO (Sigma-Aldrich, MA, USA); then, the optical density (OD) was measured using an ELISA plate reader ([…], Taiwan) at 578 nm with a reference wavelength of 630 nm. The percentage of surviving cells was calculated from the absorbance values of the test and control wells using the following Equation. 1 [drawing 1] […] Afterward, supernatants were collected, and the levels of TNF-α and NO were measured using the Mouse TNF alpha Uncoated ELISA Kit (InvitrogenTM, ThermoFisher Scientific, MA, USA) and the Total Nitric Oxide Assay Kit (InvitrogenTM, ThermoFisher Scientific, MA, USA), respectively, according to the manufacturer's instructions.

[4] = system: KG-1a cells; assay: MTT cytotoxicity assay in KG-1a cells; assay type: cell-based, human; conditions: for IC50 / IC20: Homo sapiens, KG-1a; for IC20: read-out: IC20 KG-1a (inhibitory concentration at 20% growth); for Selectivity index (SI): IC50 for normal cells (PBMCs) / IC50 for cancer cells (KG-1a)
Protocol: (§2) MTT (3-(4,5-dimethylthiazol-2-yl)-2,5-diphenyltetrazolium bromide) assay was used to investigate the cytotoxicity of the test samples. KG-1a (1.5 × 10^4 cells/well), K562 (1.0 × 10^4 cells/well), PBMCs (1.0 × 10^5 cells/well), A549 (5.0 × 10^3 cells/well), MCF-7 (5.0 × 10^3 cells/well), and HeLa (5.0 × 10^3 cells/well) were seeded into a 96-well plate and incubated overnight at 37 °C with 5% CO2. […] After that, 5 mg/mL of MTT dye solution (Sigma-Aldrich, MA, USA) was added and incubated for 4 h. The produced formazan crystals were dissolved in 200 µL of DMSO (Sigma-Aldrich, MA, USA); then, the optical density (OD) was measured using an ELISA plate reader (Metertech, Taipei, Taiwan) at 578 nm with a reference wavelength of 630 nm. The percentage of surviving cells was calculated from the absorbance values of the test and control wells using the following Equation. 1 [drawing 1]
(§3) where ODsample is a mean absorbance in test well and ODvehicle control is a mean absorbance in VC well. The average percentage of surviving cells at each concentration obtained from triplicate experiments was plotted as a dose-response curve. Inhibitory concentration values at 50% growth (IC50 value) were defined as the lowest concentration of the test sample that inhibited cell growth by 50% compared to the untreated control.
(§4) To calculate IC50 values, a dose-response curve was fitted using non-linear regression analysis, as described in the GraphPad Prism guidelines (https://www.graphpad.com/support/faq/how-to-determine-an-icsub50sub/). The IC50 value was obtained by determining the point at which the curve intersected 50% growth inhibition. Non-linear regression graphs of the dose-response curve for each compound are provided in the supplementary data file (Figs. S1–S8).
where IC50 N is IC50 for normal cells and IC50 C is IC50 for cancer cells which were treated with the same compounds in both cells.

[5] = system: PBMCs; assay: MTT cytotoxicity assay in PBMCs; assay type: cell-based, human; conditions: Homo sapiens, PBMC; for IC20: incubation for 48 h, read-out: IC20 PBMCs (inhibitory concentration at 20% growth)
Protocol: PBMCs were isolated from blood samples using the Ficoll-Hypaque technique. Initially, 10–20 mL of blood was collected in a heparin tube at a ratio of 1:500 from a minimum of three healthy volunteers. Subsequently, the blood samples were diluted with Phosphate buffer saline (PBS), pH 7.4, at a ratio of 1:1 to reduce viscosity. Histopaque-1077 (Sigma-Aldrich, MA, USA) was then underlaid the diluted sample and centrifuged at 400×g for 30 min. The resulting PBMCs were collected, washed with PBS, pH 7.4, and prepared for further experiments.
as §2, §3, §4

[6] = IC20 concentration (nocodazole 6 ng/mL, curcumin 3 µg/mL, shogaol 0.12 µg/mL)
[7] = higher concentrations than IC20
[8] = 48 h, active compounds and drugs, MTT, 48 h, read-out: IC50 KG-1a
[9] = Table S7, KG-1a, first replicate, read-out: IC50 value R1
[10] = Table S7, KG-1a, third replicate, read-out: IC50 value R3
[11] = active compounds and drugs, MTT, 48 h
[12] = Table S8, PBMCs, first replicate, read-out: IC50 value R1
[13] = Table S8, PBMCs, second replicate, read-out: IC50 value R2
[14] = Table S8, PBMCs, third replicate, read-out: IC50 value R3
[15] = active compounds and drugs, MTT, 48 h, read-out: IC50 PBMCs

| Compound | decrease of total cell number compared to VC [1] | normalized viable cell counts [1] | effect on sub-G1 population compared to VC [2, 6] | change of cell cycle phase population compared to VC [2] | G2/M phase population ([2]; sub-G1 excluded) | effect on sub-G1 population compared to VC [2, 7] | IC20 [3] | IC50 [4, 8] | IC20 ([4]; 48 h, incubation for 48 h) | IC50 [4, 9] | IC50 [4, 10] | Selectivity index (SI) ([4]; 48 h) | IC50 KG-1a [4, 11] | IC50 [5, 12] | IC50 [5, 13] | IC50 [5, 14] | IC50 [5, 15] | IC20 [5] | further results |
| --- | --- | --- | --- | --- | --- | --- | --- | --- | --- | --- | --- | --- | --- | --- | --- | --- | --- | --- | --- |
| COc1cc(/C=C/C(=O)CC(=O)/C=C/c2ccc(O)c(OC)c2)ccc1O [Curcumin, curcumin] | 40.75 ± 12.78% | 954.40 ± 3.19 × 10^3 cells per 1 million total cells | did not significantly increase the sub-G1 population | neither curcumin nor shogaol induced significant changes in the cell cycle phase population | 43.66 ± 6.75% | significant increases in the sub-G1 population | 2.08 ± 0.15 µg/mL (≈ 5.65 µM) | 10 µg/mL (≈ 27.1 µM) | 3.51 ± 0.59 µg/mL (≈ 9.53 µM) | 10.4 µg/mL (≈ 28.2 µM) | 10.6 µg/mL (≈ 28.8 µM) | 1.31 | 10.52 ± 0.12 µg/mL (≈ 28.6 µM) | 13.8 µg/mL (≈ 37.4 µM) | 14.6 µg/mL (≈ 39.6 µM) | 13 µg/mL (≈ 35.2 µM) | 13.8 ± 0.82 µg/mL (≈ 37.4 µM) | 3.72 ± 0.58 µg/mL (≈ 10.1 µM) | IC50 ([4]; Table S7, KG-1a, second replicate, read-out: IC50 value R2): 10.6 µg/mL (≈ 28.7 µM); Selectivity index (SI) ([4]; 48 h, listed as curcumin): greater than 1; IC20 KG-1a (inhibitory concentration at 20% growth) ([4]; incubation for 48 h): 3 µg/mL (≈ 8.14 µM) |
| CCCCC/C=C/C(=O)CCc1ccc(O)c(OC)c1 [Shogaol, shogaol] | 35.32 ± 6.10% | 976.13 ± 13.69 × 10^3 cells per 1 million total cells | did not significantly increase the sub-G1 population | neither curcumin nor shogaol induced significant changes in the cell cycle phase population | 31.38 ± 1.60% | significant increases in the sub-G1 population | 2.71 ± 0.62 µg/mL (≈ 9.81 µM) | 2.99 ± 0.01 µg/mL (≈ 10.8 µM) | 0.12 µg/mL (≈ 0.434 µM) | 2.98 µg/mL (≈ 10.8 µM) | 2.99 µg/mL (≈ 10.8 µM) | 3.07 | 3 µg/mL (≈ 10.9 µM) | 8.3 µg/mL (≈ 30 µM) | 9.9 µg/mL (≈ 35.8 µM) | 9.35 µg/mL (≈ 33.8 µM) | 9.18 ± 0.82 µg/mL (≈ 33.2 µM) | 6.06 ± 1.11 µg/mL (≈ 21.9 µM) | decrease of S phase population ([2]; 1.5 µg/mL, sub-G1 excluded): 40.56 ± 3.82%; IC50 ([4]; Table S7, KG-1a, mean of R1-R3, read-out: IC50 value Mean): 2.99 µg/mL (≈ 10.8 µM) |
